Experimental data as given in patent US8906678B2, “Use of markers of undifferentiated pluripotent stem cell” (Agency for Science, Technology and Research, priority 2010, dated 2014).
Read-outs that look alike come from different tables or passages of the source. Each block holds one compound with its values, some of them ahead of it. Bridge positions count the residues as written; N and C are the ends. Square brackets hold non-standard residues; d marks the D form. Peptide text beside a SMILES is read from it.

Assays:
Type in all cases: cell-based, human
HES-3 cells = details: for killing efficiency on hESC, D-form vs L-form: 100 μm, after 120 hr; for relative viability: 100 μM
Protocol: Viability was determined using Propidium Iodide (PI) assay, where cells were trypsinized and resuspended in binding buffer (10 mM HEPES/NaOH, 140 mM NaCl and 2.5 mM CaCl2) containing 1.25 mg/ml of PI. The cells were incubated at room temperature for 15 min before analyzing on the flow cytometer.

HES-3 = test: Growth curve of HES-3 cultures (viable cell number vs time)
Protocol: Human embryonic stem cell line, HES-3, was obtained from ES Cell International (ESI, Singapore, http://escellinternational.com). The cells were cultured at 37° C., 5% CO2, on matrigel-coated culture dishes supplemented with conditioned media from immortalized mouse embryonic fibroblast, ΔE-MEF. The media used for culturing hESC was Knockout (KO) media containing 85% KO-DMEM (DMEM, Dulbecco's modified Eagle's medium) supplemented with 15% KO serum replacer, 1 mM L-glutamine, 1% non-essential amino acids, 0.1 mM 2-mercaptoethanol, and 10 ng/ml basic fibroblast growth factor (FGF-2; Invitrogen, Carlsbad, Calif., http://www.invitrogen.com). The cells were treated with collagenase IV (200 U/ml) or TrypLE Express solution (Invitrogen) and dissociated into small clumps or single cells respectively by repeated pipetting. The cells were then reseeded onto matrigel-coated plates at a passage ratio 1:4.
(§1) HES-3 and IMR-90 cells were cultured in 24 wells culture dishes supplemented with either 100 μM PHB-targeting pro-apoptotic peptide (CKGGRAKDC-GG-D(KLAKLAK)2 (SEQ ID NO:3)>90% purity; Sigma Aldrich) or 0.2% DMSO as control. Cultures were induced every 48 h and harvested daily for cell count. Cell numbers were determined using NucleoCounter according to the manufacturer's recommendations (Chemometec, Denmark, http://http://www.chemometec.com). The growth curves were generated by plotting viable cell number vs time. Specific growth rate, μ, was calculated as the gradient of the exponential phase, determined by plotting ln(cell number) vs time. Triplicates were done for each set of data.

IMR-90 cells = test: Growth curve of IMR-90 cells (specificity control)
Protocol: Human fetal lung fibroblast cell line, IMR-90 (CCL-186), was purchased from American Type Culture Collection and cultured according to the supplier's instructions.
as §1

ESIMR90 = test system: ESIMR90
Protocol: Induced pluripotent stem cell line, ESIMR90, derived from lung fibroblasts, was obtained from James Thomson (18). ESIMR90 was cultured as per hESC cultures, with the exception of supplementing cultures with 100 ng/ml of FGF-2. For FGF-2 starved cultures, cells were maintained without FGF-2 as mentioned above. Viability was determined using Propidium Iodide (PI) assay, where cells were trypsinized and resuspended in binding buffer (10 mM HEPES/NaOH, 140 mM NaCl and 2.5 mM CaCl2) containing 1.25 mg/ml of PI. The cells were incubated at room temperature for 15 min before analyzing on the flow cytometer.

hESC [1] = test: Detection of caspase-3 activity / annexin V, hESC; details: 100 μM peptide, 24 hours
Protocol: (§2) To detect caspase-3 activity in treated hESC, cells grown in 24 wells were incubated with 5 μM of NucView 488 Caspase-3 substrate (Biotium Inc, www.biotium.com) and sulforhodamine 101-annexin V (1.25 ug/ml; Biotium Inc) at room temperature for 30 min. Cells were then washed once with PBS and examined under the Olympus IX70 fluorescence microscope (Olympus, http://www.olvmousamerica.com). For flow cytometry analysis, hESC was trypinsized before resuspending cells in PBS containing caspase-3 substrate and annexin V reagents.

ESIMR90 cells = test: Detection of caspase-3 activity / annexin V, ESIMR90; details: 100 μM peptide, 24 hours
Protocol: as §2

hESC [2] = test: TUNEL assay (nuclear DNA fragmentation); details: after 48 hours
Protocol: Nuclear DNA fragmentation was measured via a TUNEL (Terminal deoxynucleotidyl transferase dUTP nick end labeling) assay kit (Promega, Madison, Wis., http://www.promega.com). Cells were harvested from each condition and fixed in 1% paraformaldehyde for 20 min on ice before permeabilizing them with ice-cold 70% ethanol at […] overnight. Subsequently, the cells were washed with PBS and incubated in 80 μl of equilibration buffer for 5 min at room temperature. The cells were pelleted down and resuspended in 50 μl of incubation buffer containing nucleotides and rTdT enzyme, followed by incubation at 37° C. for 1 h. The reaction was quenched using 20 mM EDTA and cells were resuspended in 0.1% Triton/0.5% BSA/PBS before analyzing on the flow cytometer. The green fluorescence of fluorescein-12-dUTP was detected in the FL1 channel.

[3] = test system: MAPK pathway (ERK phosphorylation) in HES-3 cultures; test: SU5402 inhibitor study, ERK phosphorylation by western blot; details: 20 μM and 30 μM SU5402 for 2 h, then 10 ng/ml FGF-2 for 15 min
Protocol: hESC cultured under various conditions were lysed and clarified via centrifugation before quantifying with the DC protein assay (Biorad, http://www.bio-rad.com). 20 ug of total protein from each condition was resolved and transferred onto membrane as described above. The resolved proteins were then immunoblotted with anti-actin (1:10,000; Abcam, http://www.abcam.com), anti-total ERK (1:1000; Sigma Aldrich) and anti-phospho-ERK (1:5000; Sigma Aldrich) antibodies. The protein bands were visualized using either ECL Plus detection reagent (Amersham, GE Healthcare, UK, http://www.gehealthcare.com) or LI-COR ODYSSY imaging system (LI-COR Biosciences, Nebraska, http://www.licor.com).
Efficacy of SU5402 (Calbiochem, San Diego, USA, http://www.emdbiosciences.com) was determined by culturing hESC in absence of FGF-2 for 5 days, followed by incubating with 20 μM or 30 μM of SU5402 for 2 h before inducing the treated cultures with FGF-2 for 15 min. Cells were then lysed and the lysates were analyzed using western blot analysis.

[4] = test system: PHB surface expression in HES-3; test: SU5402 effect on PHB surface expression, flow cytometry, HES-3; details: 20 μM or 30 μM SU5402 for 7 days
Protocol: Cells were harvested as single cell suspensions using trypsin, resuspended at 2×10^5 cells per 10 μl volume in 1% bovine serum albumin (BSA)/PBS and incubated for 45 min with each mAb clone (100 ul culture supernatant) or monoclonal TRA-1-60 antibody. (12.5 ug/ml; Chemicon, Temecula, Calif. http://www.chemicon.com). Cells were then washed with cold 1% BSA/PBS, and further incubated for 15 min with 1:500 dilution of fluorescein isothiocyanate (FITC)-conjugated goat α-mouse antibody (DAKO, Glostrup, Denmark, http://www.dako.com). After incubation, the cells were again washed and resuspended in 1% BSA/PBS for analysis on a FACScan (Becton, Dickinson and Company, Franklin Lakes, N.J., http://www.bd.com).
To observe the effect of SU5402 on expression of PHB in hESC, cells were seeded and allowed to adhere for 24 h before culturing them in the presence of SU5402 at concentrations of 20 μM or 30 μM for 7 days. Control cells were cultured similarly in the presence of the vehicle control, DMSO instead. Cells were subsequently harvested for flow cytometry analysis.

[5] = 100 μM of peptide, clump cultures

SMILES: CC(C)C[C@H](NC(=O)[C@H](CCCCN)NC(=O)CNC(=O)CNC(=O)[C@H](CS)NC(=O)[C@H](CC(=O)O)NC(=O)[C@H](CCCCN)NC(=O)[C@H](C)NC(=O)[C@H](CCCNC(=N)N)NC(=O)CNC(=O)CNC(=O)[C@H](CCCCN)NC(=O)[C@@H](N)CS)C(=O)N[C@@H](C)C(=O)N[C@@H](CCCCN)C(=O)N[C@@H](CC(C)C)C(=O)N[C@@H](C)C(=O)N[C@@H](CCCCN)C(=O)N[C@@H](CCCCN)C(=O)N[C@@H](CC(C)C)C(=O)N[C@@H](C)C(=O)N[C@@H](CCCCN)C(=O)N[C@@H](CC(C)C)C(=O)N[C@@H](C)C(=O)N[C@@H](CCCCN)C(=O)O [L-form peptide] (H-CKGGRAKDCGGKLAKLAKKLAKLAK-OH; N-terminus and C-terminus assumed)
- killing efficiency on hESC, D-form vs L-form (HES-3 cells): comparable
- hESC viability (HES-3 cells; human, 120 hr): < 5%

- population exhibiting elevated caspase-3 activity (hESC [1]; flow cytometry): 71.1%
SMILES: CC(C)C[C@@H](NC(=O)[C@@H](CCCCN)NC(=O)CNC(=O)CNC(=O)[C@@H]1CSSC[C@H](N)C(=O)N[C@@H](CCCCN)C(=O)NCC(=O)NCC(=O)N[C@@H](CCCNC(=N)N)C(=O)N[C@@H](C)C(=O)N[C@@H](CCCCN)C(=O)N[C@@H](CC(=O)O)C(=O)N1)C(=O)N[C@H](C)C(=O)N[C@H](CCCCN)C(=O)N[C@H](CC(C)C)C(=O)N[C@H](C)C(=O)N[C@H](CCCCN)C(=O)N[C@H](CCCCN)C(=O)N[C@H](CC(C)C)C(=O)N[C@H](C)C(=O)N[C@H](CCCCN)C(=O)N[C@H](CC(C)C)C(=O)N[C@H](C)C(=O)N[C@H](CCCCN)C(=O)O [peptide, CKGGRAKDC-GG-D(KLAKLAK)2] (H-CKGGRAKDCGG[dK][dL][dA][dK][dL][dA][dK][dK][dL][dA][dK][dL][dA][dK]-OH; disulfide 1-9; N-terminus and C-terminus assumed)
- initiation of death phase (HES-3; [5]): 70 h
- td (HES-3; [5]): 61.3 h
- specific growth rate (HES-3; 100 μM of peptide, clump cultures, over 7 days): 0.0113 h⁻¹
- growth compared to the control (HES-3; peptide supplemented to TrypLE passaged cultures): minimal growth
- growth rate μ (IMR-90 cells; 100 μM of peptide): 0.0167 h⁻¹
- cell killing effect (IMR-90 cells; IMR-90 cells, which do not express PHB on membrane): minimal cell killing effect
- killing efficiency on hESC, D-form vs L-form (HES-3 cells): comparable
- toxic effect on hESC (HES-3 cells; concentrations less than 100 μM): minimal
- time of incubation to cell death via apoptosis (HES-3 cells; hESC): ≤ 48 h
- relative viability (HES-3 cells; human, 24 h): 84.7%
- relative viability (HES-3 cells; human, 72 h): 52.2%
- relative viability (HES-3 cells; human, 120 h): 21.7%
- viability (HES-3 cells; human, 120 hr, 150 µM): < 10%
- viability (HES-3 cells; human, 120 hr, 200 µM): < 10%
- apoptotic killing effect, dose dependence (HES-3 cells; titrated over 20 μM to 200 μM): concentration-dependent
- time of incubation to cell death via apoptosis (ESIMR90; IPSCs): ≤ 48 h
- relative viability (ESIMR90; human, 72 h): 33.4%
- caspase-3 substrate and Annexin V staining (hESC [1]; fluorescence microscopy): exhibited caspase-3 activity and phosphatidylserine (PS) externalization
- population exhibiting elevated caspase-3 activity (ESIMR90 cells; flow cytometry): 66.3%
- caspase-3 substrate and Annexin V staining (ESIMR90 cells; fluorescence microscopy): exhibited caspase-3 activity and phosphatidylserine (PS) externalization
- DNA fragmentation compared to the control (hESC [2]): significant increase in DNA fragmentation

SMILES: Cc1c[nH]c(/C=C2\C(=O)Nc3ccccc32)c1CCC(=O)O [SU5402]
- ERK phosphorylation [3]: suppression of ERK phosphorylation
- surface expression of PHB [4]: down-regulated surface expression of PHB
